According to DBAASP:
≈ marks a conversion by molar mass, not a printed value. One block for each compound: values may come before it.

Assays:
Test in all cases: ≥ marks a high value that may be exact or a test limit, other limits are often not marked, values filed in µg/mL are converted to µM
[1] = test system: Escherichia coli ATCC 25922
[2] = test system: Pseudomonas aeruginosa PAO1
Bacillus subtilis PY79 = test system: Bacillus subtilis PY79
[3] = test system: Klebsiella pneumoniae ATCC 700603
[4] = test system: Pseudomonas aeruginosa PA14
[5] = test system: Staphylococcus aureus ATCC 6538P
[6] = test system: Escherichia coli DH5alpha
[7] = test system: Fusarium graminearum PH-1
[8] = test system: Clostridioides difficile CICC 22951
[9] = test system: Proteus mirabilis CMCC 49005
[10] = test system: Salmonella typhimurium CMCC 51005
[11] = test system: Bacillus megaterium CICC 10448
[12] = test system: Salmonella enterica subsp. enterica serovar Enteritidis CICC 21527
[13] = test system: Serratia marcescens CICC 10187
[14] = test system: Clostridium perfringens CICC 22949
[15] = test system: Staphylococcus aureus CMCC 26003
Bacillus cereus AS1.1846 = test system: Bacillus cereus AS1.1846
[16] = test system: Bacillus subtilis ATCC 9943
[17] = test system: Paenibacillus polymyxa CGMCC 4314
[18] = test system: Micrococcus luteus CMCC 28000
[19] = test system: Shigella flexneri CMCC 51571
[20] = test system: Geobacillus stearothermophilus CICC 20139
[21] = test system: Bacillus pumilus CMCC 63202
[22] = test system: Alicyclobacillus acidoterrestris CICC 10374
[23] = test system: Salmonella enterica subsp. enterica serovar Paratyphi A CICC 21501
[24] = test system: Salmonella enterica subsp. enterica serovar Paratyphi B CICC 21495
[25] = test system: Pseudomonas fluorescens AS1.1802
[26] = test system: Clostridium sporogenes CICC 10385
[27] = test system: Escherichia coli CCT 1457
[28] = test system: Staphylococcus aureus CCT 2580
[29] = test system: Escherichia coli ATCC 11775
[30] = test system: Pseudomonas aeruginosa ATCC 13388
[31] = test system: Salmonella enterica subsp. enterica serovar Typhimurium ATCC 14028
[32] = test system: Staphylococcus epidermidis ATCC 12228
[33] = test system: Streptococcus mutans AU159
[34] = test system: Enterococcus faecium CCT 5079
[35] = test system: Staphylococcus aureus ATCC 6538
[36] = test system: Micrococcus luteus ATCC 4698
[37] = test system: Bacillus subtilis CCT 2576
[38] = test system: Salmonella enterica subsp. enterica serovar Choleraesuis ATCC 10708
[39] = test system: Staphylococcus aureus CCT 6538
[40] = test system: Bacillus cereus ATCC 11778
[41] = test system: Pseudomonas aeruginosa ATCC 15422
[42] = test system: Streptococcus pneumoniae ATCC 11733
[43] = test system: Enterococcus hirae ATCC 10541
[44] = test system: Bacillus thuringiensis ATCC 10792
[45] = test system: Staphylococcus aureus ATCC 25923

MIC [1]: 6.25 µM (≈ 13.6 µg/mL)
MIC [2]: 25 µM (≈ 54.2 µg/mL)
MIC (Bacillus subtilis PY79): ≥ 100 µM
MIC [3]: 3.12 µM (≈ 6.77 µg/mL)
MIC [4]: ≥ 50 µM
MIC [5]: ≥ 100 µM
MIC [6]: 12.5 µM (≈ 27.1 µg/mL)
SMILES: CC(=O)NC(CC(C)C)C(=O)NC(CCCNC(=N)N)C(=O)NC(C(=O)NC(CCCNC(=N)N)C(=O)NC(CC(C)C)C(=O)NC(C)C(=O)NC(CO)C(=O)NC(Cc1c[nH]cn1)C(=O)NC(CC(C)C)C(=O)NC(CCCNC(=N)N)C(=O)NC(CCCCN)C(=O)NC(CC(C)C)C(=O)NC(CCCNC(=N)N)C(=O)NC(CCCCN)C(=O)NC(CCCNC(=N)N)C(=O)NC(CC(C)C)C(=O)NC(CC(C)C)C(N)=O)C(C)C (centres undefined) [LRVRLASHLRKLRKRLL]

MIC [7]: 12 µM (≈ 10.2 µg/mL)
SMILES: NC(N)=NCCC[C@H](NC(=O)[C@H](CCCN=C(N)N)NC(=O)[C@H](CCCN=C(N)N)NC(=O)[C@H](Cc1ccccc1)NC(=O)CNC(=O)[C@@H](N)CCCN=C(N)N)C(=O)O [RGFRRR]

MIC [8]: 30.6 µM (≈ 32 µg/mL)
MIC [1]: 61.3 µM (≈ 64 µg/mL)
MIC [9]: 15.3 µM (≈ 16 µg/mL)
MIC [10]: 30.6 µM (≈ 32 µg/mL)
MIC [11]: 15.3 µM (≈ 16 µg/mL)
MIC [12]: 15.3 µM (≈ 16 µg/mL)
MIC [13]: 15.3 µM (≈ 16 µg/mL)
MIC [14]: 30.6 µM (≈ 32 µg/mL)
MIC [15]: 15.3 µM (≈ 16 µg/mL)
MIC (Bacillus cereus AS1.1846): 15.3 µM (≈ 16 µg/mL)
MIC [16]: 15.3 µM (≈ 16 µg/mL)
MIC [17]: 15.3 µM (≈ 16 µg/mL)
MIC [18]: 15.3 µM (≈ 16 µg/mL)
MIC [19]: 30.6 µM (≈ 32 µg/mL)
MIC [20]: 30.6 µM (≈ 32 µg/mL)
MIC [21]: 15.3 µM (≈ 16 µg/mL)
MIC [22]: 15.3 µM (≈ 16 µg/mL)
MIC [23]: 15.3 µM (≈ 16 µg/mL)
MIC [24]: 15.3 µM (≈ 16 µg/mL)
MIC [25]: 15.3 µM (≈ 16 µg/mL)
MIC [26]: 30.6 µM (≈ 32 µg/mL)
SMILES: CSCC[C@H](NC(=O)[C@H](CCCCN)NC(=O)[C@H](CCC(N)=O)NC(=O)[C@H](Cc1c[nH]c2ccccc12)NC(=O)[C@@H](N)Cc1ccccc1)C(=O)N[C@@H](CO)C(=O)N[C@@H](Cc1ccccc1)C(=O)N[C@@H](C)C(=O)O [FWQKMSFA]

MIC [27]: 19.6 µM (≈ 31 µg/mL)
MIC [1]: 14.8 µM (≈ 23.4 µg/mL)
MIC [28]: 27.1 µM (≈ 43 µg/mL)
MIC [29]: ≥ 39.7 µM
MIC [30]: ≥ 158 µM
MIC [31]: 315 µM (≈ 500 µg/mL)
MIC [32]: 39.7 µM (≈ 63 µg/mL)
MIC [33]: ≥ 315 µM
MIC [34]: ≥ 158 µM
MIC [35]: 27.1 µM (≈ 42.9 µg/mL)
MIC [36]: 19.6 µM (≈ 31 µg/mL)
MIC [37]: 7.38 µM (≈ 11.7 µg/mL)
MIC [39]: ≥ 39.7 µM
MIC [40]: 10.1 µM (≈ 16 µg/mL)
MIC [41]: ≥ 78.9 µM
MIC [42]: ≥ 78.9 µM
MIC [43]: ≥ 39.7 µM
MIC [44]: ≥ 78.9 µM
MIC [45]: 39.7 µM (≈ 63 µg/mL)
SMILES: CC[C@H](C)[C@H](N)C(=O)N[C@@H](CC(N)=O)C(=O)N[C@@H](Cc1c[nH]c2ccccc12)C(=O)N[C@@H](CC(C)C)C(=O)N[C@@H](CCCCN)C(=O)N[C@@H](C)C(=O)N[C@@H](CCCCN)C(=O)N[C@@H](CCCCN)C(=O)N[C@H](C(=O)N[C@@H](C)C(=O)NCC(=O)N[C@@H](CCSC)C(=O)N[C@H](C(=O)N[C@@H](CC(C)C)C(N)=O)[C@@H](C)CC)C(C)C [INWLKAKKVAGMIL]
MIC [38]: ≥ 315 µM
